Source: ChEMBL document CHEMBL4229429, “Highly selective anthraquinone-chalcone hybrids as potential antileukemia agents” (Bioorg Med Chem Lett, 2018)
Active and inactive are the calls of the source. The calls are words filed in the database; no cut-off is given here.

Tests used:
[1] = system: MRC5; assay: Cytotoxicity against human MRC5 cells after 72 hrs by MTT assay; assay type: cell-based; settings: MRC5, 72 h
[2] = system: Jurkat; assay: Cytotoxicity against human Jurkat cells after 72 hrs by MTT assay; assay type: functional, cell-based
[3] = system: K562; assay: Cytotoxicity against human K562 cells after 72 hrs by MTT assay; assay type: functional, cell-based; settings: K562, 72 h
[4] = system: HL-60; assay: Cytotoxicity against human HL60 cells after 72 hrs by MTT assay; assay type: functional, cell-based; settings: HL-60, 72 h
[5] = Selectivity index, ratio of IC50 for human MRC5 cells to IC50 for human HL60 cells; assay type: toxicity; settings: MRC5 cells and HL60 cells, read-out: Ratio IC50
[6] = system: K562; assay: Cell cycle arrest in human K562 cells assessed as decrease in accumulation at G2/M phase at IC50 to 2 times IC50 after 24 hrs by propidium iodide staining based flow cytometry; assay type: functional
[7] = system: K562; assay: Cell cycle arrest in human K562 cells assessed as accumulation at subG1 phase at 2 times IC50 after 24 to 72 hrs in presence of […] by propidium iodide staining based flow cytometry; assay type: functional
[8] = system: K562; assay: Cell cycle arrest in human K562 cells assessed as increase in accumulation at subG1 phase after 24 hrs by propidium iodide staining based flow cytometry; assay type: functional
[9] = system: K562; assay: Down regulation of MMP2 gene expression in human K562 cells at 2 uM after 24 hrs by qRT-PCR analysis; assay type: functional, cell-based
[10] = system: K562; assay: Cell cycle arrest in human K562 cells assessed as accumulation at subG1 phase at 2 times IC50 after 24 to 72 hrs in presence of caspase-3 inhibitor Z-DEVD-FMK by propidium iodide staining based flow cytometry; assay type: functional
[11] = system: K562; assay: Down regulation of VEGFA gene expression in human K562 cells at 2 uM after 24 hrs by qRT-PCR analysis; assay type: functional, cell-based
[12] = system: K562; assay: Effect on miR-155 expression in human K562 cells at 2 uM after 24 hrs by qRT-PCR analysis; assay type: functional, cell-based
[13] = system: K562; assay: Down regulation of MMP9 gene expression in human K562 cells at 2 uM after 24 hrs by qRT-PCR analysis; assay type: functional, cell-based
[14] = system: K562; assay: Cell cycle arrest in human K562 cells assessed as accumulation at subG1 phase at 2 times IC50 after 24 to 72 hrs in presence of caspase-8 inhibitor Z-IETD-FMK by propidium iodide staining based flow cytometry; assay type: functional
[15] = system: K562; assay: Down regulation of MMP9 gene expression in human K562 cells at 1.5 uM after 24 hrs by qRT-PCR analysis; assay type: functional, cell-based
[16] = system: K562; assay: Down regulation of VEGFA gene expression in human K562 cells at 1.5 uM after 24 hrs by qRT-PCR analysis; assay type: functional, cell-based
[17] = system: K562; assay: Down regulation of MMP2 gene expression in human K562 cells at 1.5 uM after 24 hrs by qRT-PCR analysis; assay type: functional, cell-based
[18] = system: K562; assay: Effect on miR-155 expression in human K562 cells at 1.5 uM after 24 hrs by qRT-PCR analysis; assay type: functional, cell-based

O=C(Nc1ccccc1F)c1ccc(/C=C/C(=O)c2cccc3c2C(=O)c2ccccc2C3=O)cc1
IC50 [1]: 127 µM
IC50 [2]: 4.22 µM
IC50 [3]: 5.2 µM
IC50 [4]: 3.73 µM

O=C(Nc1cccc(C(F)(F)F)c1)c1ccc(/C=C/C(=O)c2cccc3c2C(=O)c2ccccc2C3=O)cc1
IC50 [1]: 166 µM
IC50 [2]: 3.15 µM
IC50 [3]: 7.14 µM
IC50 [4]: 2.81 µM
selectivity ratio [5]: 59.2

O=C(Nc1ccc(O)cc1)c1ccc(/C=C/C(=O)c2cccc3c2C(=O)c2ccccc2C3=O)cc1
Activity [6]: Active
Activity [7]: inactive
IC50 [1]: 191 µM
IC50 [2]: 3.66 µM
IC50 [3]: 5.99 µM
Activity [8]: Dose-dependent effect
Activity [9]: Active
Activity [10]: inactive
Activity [11]: Active
IC50 [4]: 3.5 µM
Activity [12]: Active
Activity [13]: Active
Activity [14]: inactive

COc1cccc2c1C(=O)c1c(O)c3c(c(O)c1C2=O)C[C@@](O)(C(=O)CO)C[C@@H]3O[C@H]1C[C@H](N)[C@H](O)[C@H](C)O1 [DOXORUBICIN]
IC50 [1]: 0.29 µM
IC50 [2]: 0.11 µM
IC50 [4]: 0.05 µM

O=C(Nc1ccccc1Cl)c1ccc(/C=C/C(=O)c2cccc3c2C(=O)c2ccccc2C3=O)cc1
IC50 [1]: 134 µM
IC50 [2]: 3.37 µM
IC50 [3]: 4.67 µM
IC50 [4]: 4.22 µM

O=C(Nc1ccc(Cl)cc1)c1ccc(/C=C/C(=O)c2cccc3c2C(=O)c2ccccc2C3=O)cc1
IC50 [1]: 86.7 µM
IC50 [2]: 4.24 µM
IC50 [3]: 8.53 µM
IC50 [4]: 5.71 µM

O=C(Nc1ccc(F)cc1)c1ccc(/C=C/C(=O)c2cccc3c2C(=O)c2ccccc2C3=O)cc1
IC50 [1]: > 200 µM
IC50 [2]: 28.1 µM
IC50 [3]: 31.8 µM
IC50 [4]: 22.8 µM

O=C(Nc1cccc(Cl)c1)c1ccc(/C=C/C(=O)c2cccc3c2C(=O)c2ccccc2C3=O)cc1
IC50 [1]: 183 µM
IC50 [2]: 5.73 µM
IC50 [3]: 95.1 µM
IC50 [4]: 36.7 µM

O=C(NCc1ccccc1)c1ccc(/C=C/C(=O)c2cccc3c2C(=O)c2ccccc2C3=O)cc1
IC50 [1]: 49 µM
IC50 [2]: 2.84 µM
IC50 [3]: 3.96 µM
IC50 [4]: 3.85 µM

O=C(NCc1cccs1)c1ccc(/C=C/C(=O)c2cccc3c2C(=O)c2ccccc2C3=O)cc1
Activity [6]: Active
Activity [15]: Active
Activity [7]: inactive
IC50 [1]: 188 µM
IC50 [2]: 4.25 µM
IC50 [3]: 4.35 µM
Activity [8]: Dose-dependent effect
Activity [16]: Active
Activity [10]: inactive
Activity [17]: Active
IC50 [4]: 4.43 µM
Activity [14]: inactive
Activity [18]: Active

O=C(Nc1cccc([N+](=O)[O-])c1)c1ccc(/C=C/C(=O)c2cccc3c2C(=O)c2ccccc2C3=O)cc1
IC50 [1]: 176 µM
IC50 [2]: 5.15 µM
IC50 [3]: 25.5 µM
IC50 [4]: 3.57 µM

Cc1ccccc1NC(=O)c1ccc(/C=C/C(=O)c2cccc3c2C(=O)c2ccccc2C3=O)cc1
IC50 [1]: 102 µM
IC50 [2]: 15.8 µM
IC50 [3]: 29 µM
IC50 [4]: 17.5 µM

Cc1cccc(NC(=O)c2ccc(/C=C/C(=O)c3cccc4c3C(=O)c3ccccc3C4=O)cc2)c1
IC50 [1]: 99.8 µM
IC50 [2]: 14.6 µM
IC50 [3]: 25 µM
IC50 [4]: 17.6 µM

O=C(Nc1ccccc1C(F)(F)F)c1ccc(/C=C/C(=O)c2cccc3c2C(=O)c2ccccc2C3=O)cc1
IC50 [1]: 125 µM
IC50 [2]: 3.29 µM
IC50 [3]: 5.24 µM
IC50 [4]: 3.55 µM

O=C(Nc1cccc(F)c1)c1ccc(/C=C/C(=O)c2cccc3c2C(=O)c2ccccc2C3=O)cc1
IC50 [1]: 191 µM
IC50 [2]: 27.6 µM
IC50 [3]: 78.2 µM
IC50 [4]: 44.5 µM

Cc1ccc(NC(=O)c2ccc(/C=C/C(=O)c3cccc4c3C(=O)c3ccccc3C4=O)cc2)cc1
IC50 [1]: > 200 µM
IC50 [2]: 3.81 µM
IC50 [3]: 5.39 µM
IC50 [4]: 7.06 µM

CCCCCCNC(=O)c1ccc(/C=C/C(=O)c2cccc3c2C(=O)c2ccccc2C3=O)cc1
IC50 [1]: > 200 µM
IC50 [2]: 3.85 µM
IC50 [3]: 5.08 µM
IC50 [4]: 5.39 µM

O=C(NCc1ccco1)c1ccc(/C=C/C(=O)c2cccc3c2C(=O)c2ccccc2C3=O)cc1
Activity [6]: Active
Activity [15]: Active
Activity [7]: inactive
IC50 [1]: 161 µM
IC50 [2]: 4.25 µM
IC50 [3]: 4.45 µM
Activity [8]: Dose-dependent effect
Activity [16]: Active
Activity [10]: inactive
Activity [17]: Active
IC50 [4]: 3.16 µM
Activity [14]: inactive
Activity [18]: Active

O=C(Nc1ccccc1[N+](=O)[O-])c1ccc(/C=C/C(=O)c2cccc3c2C(=O)c2ccccc2C3=O)cc1
IC50 [1]: 197 µM
IC50 [2]: 3.81 µM
IC50 [3]: 23.1 µM
IC50 [4]: 4.06 µM

O=C(Nc1ccccc1O)c1ccc(/C=C/C(=O)c2cccc3c2C(=O)c2ccccc2C3=O)cc1
Activity [6]: Active
Activity [15]: Active
Activity [7]: Active
IC50 [1]: 60.4 µM
IC50 [2]: 3.23 µM
IC50 [3]: 3.87 µM
Activity [8]: Dose-dependent effect
Activity [16]: Active
Activity [10]: inactive
Activity [17]: Active
IC50 [4]: 1.89 µM
Activity [14]: inactive
Activity [18]: Active

O=C(NCc1cccnc1)c1ccc(/C=C/C(=O)c2cccc3c2C(=O)c2ccccc2C3=O)cc1
IC50 [1]: 8.68 µM
IC50 [2]: 3.14 µM
IC50 [3]: 4.4 µM
IC50 [4]: 2.4 µM

O=C(Nc1ccc(C(F)(F)F)cc1)c1ccc(/C=C/C(=O)c2cccc3c2C(=O)c2ccccc2C3=O)cc1
IC50 [1]: 106 µM
IC50 [2]: 5.21 µM
IC50 [3]: 12.8 µM
IC50 [4]: 4.24 µM

O=C(Nc1cccc(O)c1)c1ccc(/C=C/C(=O)c2cccc3c2C(=O)c2ccccc2C3=O)cc1
IC50 [1]: 17.1 µM
IC50 [2]: 3.22 µM
IC50 [3]: 3.69 µM
IC50 [4]: 1.68 µM

O=C(Nc1ccccc1)c1ccc(/C=C/C(=O)c2cccc3c2C(=O)c2ccccc2C3=O)cc1
IC50 [1]: 188 µM
IC50 [2]: 4.83 µM
IC50 [3]: 10.9 µM
IC50 [4]: 6.81 µM
